Assay results published in ChEMBL document CHEMBL1201862, “PubChem BioAssay data set” (2004).
The source made the active and inactive calls.

Legend:
Cytochrome P450 2C9 = Cytochrome P450 2C9 (Homo sapiens, UniProt P11712)
Cytochrome P450 2C19 = Cytochrome P450 2C19 (Homo sapiens, UniProt P33261); test: Cytochrome panel assay with activity outcomes. Panel member name: p450-cyp2c19 Compounds with AC50 equal or less than 10 uM are considered active; type: functional
Cytochrome P450 2D6 = Cytochrome P450 2D6 (Homo sapiens, UniProt P10635);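 further: CYP2D6 member of a cytochrome P450 panel assay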
Cytochrome P450 2D6, sequence (P10635 whole entry): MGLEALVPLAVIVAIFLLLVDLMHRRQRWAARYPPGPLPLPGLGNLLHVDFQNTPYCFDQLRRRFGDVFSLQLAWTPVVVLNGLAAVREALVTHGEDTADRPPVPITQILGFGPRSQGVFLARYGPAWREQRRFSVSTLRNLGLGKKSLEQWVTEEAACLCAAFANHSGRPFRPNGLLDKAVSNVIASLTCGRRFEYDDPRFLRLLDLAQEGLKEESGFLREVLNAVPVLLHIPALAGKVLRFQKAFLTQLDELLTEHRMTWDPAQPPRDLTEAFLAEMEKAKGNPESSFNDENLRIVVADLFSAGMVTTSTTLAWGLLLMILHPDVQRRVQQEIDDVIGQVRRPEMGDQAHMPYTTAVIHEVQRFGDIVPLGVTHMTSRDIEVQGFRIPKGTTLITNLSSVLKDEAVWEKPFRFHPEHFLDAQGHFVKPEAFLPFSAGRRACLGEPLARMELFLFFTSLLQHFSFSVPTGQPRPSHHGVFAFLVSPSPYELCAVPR

Cytochrome P450 3A4 = Cytochrome P450 3A4 (Homo sapiens, UniProt P08684);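 further: CYP3A4 tested as one member of a cytochrome P450 panel screen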
Cytochrome P450 3A4, sequence (P08684 whole entry): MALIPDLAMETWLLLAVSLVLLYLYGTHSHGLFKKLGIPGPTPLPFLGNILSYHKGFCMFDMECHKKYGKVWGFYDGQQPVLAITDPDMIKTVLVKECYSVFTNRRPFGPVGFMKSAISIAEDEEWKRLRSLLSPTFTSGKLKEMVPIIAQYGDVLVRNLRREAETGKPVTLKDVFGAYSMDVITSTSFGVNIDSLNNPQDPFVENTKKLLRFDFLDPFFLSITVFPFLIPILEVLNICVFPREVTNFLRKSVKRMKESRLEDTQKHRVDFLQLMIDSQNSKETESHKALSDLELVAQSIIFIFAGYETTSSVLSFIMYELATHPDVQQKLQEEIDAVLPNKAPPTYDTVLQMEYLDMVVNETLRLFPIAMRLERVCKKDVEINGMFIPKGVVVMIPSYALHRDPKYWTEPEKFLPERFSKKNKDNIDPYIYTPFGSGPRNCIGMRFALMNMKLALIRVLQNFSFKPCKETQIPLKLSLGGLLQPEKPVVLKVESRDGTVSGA

[1] = system: Streptococcus sp. 'group A'; test: Streptococcus pyogenes SK(-)GAS viability under kanamycin – luminescence, BacTiterGlo, confirmation, counter-screen for streptokinase expression inhibitor project, dose response (AID 1900); type: functional, organism-based
Streptococcus = test: GAS UMAA2166 growth inhibition – luminescence, BacTiterGlo, counter-screen for streptokinase expression inhibitor project, dose response (AID 1915); type: functional, organism-based;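 further: potency for reduction of bacterial viability or growth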
[2] = Trypanosoma cruzi growth suppression in host cells – NIH3T3 host cells, beta-gal luminescence, confirmation (AID 2044); type: functional, cell-based;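 further: intracellular parasites grown in NIH/3T3 mouse fibroblasts as host cells; luminescent beta-galactosidase reporter signal from transgenic T. cruzi replicating inside host cells; inhibitors lower the luminescence signal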
[3] = NIH3T3 cell viability loss – ATP luminescence, mouse fibroblasts, counter-screen, dose response (AID 2010); type: functional, cell-based;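 further: cells exposed to compound for about 90 hours before reading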
H4 = test: Luminescence Cell-Based Dose Response HTS to Identify Activators of 5'UTR Stem-Loop Driven Prion Protein mRNA Translation in H4 Neuroglioblastoma Cells. [Related pubchem assays: 1829 (Project Summary), 1814 (Primary HTS)]; type: functional; conditions: Homo sapiens
[4] = target: T1, Heat shock factor protein 1 (Mus musculus, UniProt P38532); test: decrease of HSF1-responsive luciferase luminescence – cell-based, NIH3T3, dose retest, confirmation (AID 2382); type: functional;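 further: NIH3T3 fibroblasts with HSF1-driven luciferase reporter stressed by proteasome inhibitor MG132; luminescence from HSF1-driven luciferase expression after 8 hours of MG132 stress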
T1 sequence (P38532 whole entry): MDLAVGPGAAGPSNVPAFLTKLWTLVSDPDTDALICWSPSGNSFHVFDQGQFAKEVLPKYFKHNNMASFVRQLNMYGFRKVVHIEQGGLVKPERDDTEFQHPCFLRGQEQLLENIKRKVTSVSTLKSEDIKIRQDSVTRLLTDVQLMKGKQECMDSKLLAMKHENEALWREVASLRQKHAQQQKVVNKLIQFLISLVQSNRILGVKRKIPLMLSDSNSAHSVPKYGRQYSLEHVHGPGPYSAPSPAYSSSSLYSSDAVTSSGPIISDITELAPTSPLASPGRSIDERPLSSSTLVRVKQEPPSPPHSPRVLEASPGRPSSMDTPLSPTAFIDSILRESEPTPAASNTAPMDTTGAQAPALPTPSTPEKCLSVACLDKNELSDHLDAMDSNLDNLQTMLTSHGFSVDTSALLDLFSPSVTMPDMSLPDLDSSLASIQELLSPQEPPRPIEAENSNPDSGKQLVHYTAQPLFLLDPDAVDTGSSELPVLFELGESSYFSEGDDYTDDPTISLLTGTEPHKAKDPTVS

Cytochrome P450 2C9, sequence (P11712 whole entry): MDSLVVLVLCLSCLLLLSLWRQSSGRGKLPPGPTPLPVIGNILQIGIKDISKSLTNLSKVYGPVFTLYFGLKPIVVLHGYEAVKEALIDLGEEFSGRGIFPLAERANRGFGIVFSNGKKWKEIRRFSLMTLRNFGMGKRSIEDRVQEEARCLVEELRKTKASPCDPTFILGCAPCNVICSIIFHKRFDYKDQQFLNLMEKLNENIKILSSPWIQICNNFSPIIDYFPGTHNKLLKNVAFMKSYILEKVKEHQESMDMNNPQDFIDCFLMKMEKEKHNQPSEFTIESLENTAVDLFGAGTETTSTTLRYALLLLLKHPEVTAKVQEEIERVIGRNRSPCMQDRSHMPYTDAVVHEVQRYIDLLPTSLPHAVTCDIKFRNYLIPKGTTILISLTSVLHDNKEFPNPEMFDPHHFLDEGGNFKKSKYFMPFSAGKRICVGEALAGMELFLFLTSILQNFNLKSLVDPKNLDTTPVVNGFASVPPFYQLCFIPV
Cytochrome P450 2C19, sequence (P33261 whole entry): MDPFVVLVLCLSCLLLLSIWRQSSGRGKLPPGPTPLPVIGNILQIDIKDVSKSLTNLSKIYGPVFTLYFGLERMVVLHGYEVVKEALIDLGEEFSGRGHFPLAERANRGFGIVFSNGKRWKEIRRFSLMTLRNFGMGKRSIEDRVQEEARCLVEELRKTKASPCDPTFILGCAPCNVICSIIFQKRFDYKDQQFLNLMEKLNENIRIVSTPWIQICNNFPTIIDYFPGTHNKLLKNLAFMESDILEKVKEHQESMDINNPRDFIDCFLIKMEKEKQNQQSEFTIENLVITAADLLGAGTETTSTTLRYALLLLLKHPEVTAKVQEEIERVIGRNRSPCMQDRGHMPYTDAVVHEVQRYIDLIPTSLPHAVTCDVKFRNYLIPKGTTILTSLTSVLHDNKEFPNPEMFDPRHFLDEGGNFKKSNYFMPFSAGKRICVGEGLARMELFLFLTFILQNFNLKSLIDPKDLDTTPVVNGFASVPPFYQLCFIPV

COc1ccc(C(=O)c2c[nH]c(C(=O)NCc3cccs3)c2)cc1
AC50 (Cytochrome P450 2C9): 0.251 µM (inconclusive)

CCN(CC)CCNC(=O)Cn1nc(-c2ccc(C)cc2)ccc1=O
AC50 (Cytochrome P450 2C19): inconclusive | AC50 (Cytochrome P450 2D6): 22.4 µM (inconclusive)

N=c1nc(N)nc(N)n1-c1ccc(S(N)(=O)=O)cc1
AC50 (Cytochrome P450 2D6): 3.98 µM (inconclusive)

Cc1cc(-c2cc(C)c(O)c(C(C)(C)C)c2)cc(C(C)(C)C)c1O
AC50 (Cytochrome P450 2C9): 5.01 µM (inconclusive)

CCCCNC(=O)C1CC(=O)N(c2ccc(OC)cc2)C1c1ccc(OC)cc1 (configuration not stated)
AC50 (Cytochrome P450 2C19; read-out: AC50): 25.1 µM (inconclusive) | AC50 (Cytochrome P450 2C9): 25.1 µM (inconclusive) | AC50 (Cytochrome P450 2D6): 15.8 µM (inconclusive)

C/C(CCN1CCCCc2nc(C)c(C)cc21)=N\OC[C@@H](C)[C@H](OCc1ccccc1)C(C)C
AC50 (Cytochrome P450 3A4): 3.16 µM (inconclusive)

CCCc1ccc(Oc2cc(C)nc(N3CCOCC3)n2)cc1
AC50 (Cytochrome P450 2D6): 14.1 µM (inconclusive)

Cc1ccc(S(=O)(=O)N(C)CC(=O)ONC(=N)c2ccccn2)cc1
AC50 (Cytochrome P450 2C19): inconclusive | AC50 (Cytochrome P450 3A4): 22.4 µM (inconclusive)

Cc1cc(-c2cccs2)nc(-n2cccc2)n1
AC50 (Cytochrome P450 2C19; read-out: AC50): 5.62 µM (inconclusive) | AC50 (Cytochrome P450 3A4): 31.6 µM (inconclusive)

CO[C@H]1COC(=O)[C@@H](Cc2ccccc2)NC(=O)[C@@H](C)COC(=O)C/C=C\[C@@H]1C
AC50 (Cytochrome P450 3A4): 6.31 µM (inconclusive)

O=C(NCCc1ccccc1)C(=O)NN=C1CCCC1
AC50 (Cytochrome P450 2C19; read-out: AC50): 0.355 µM (inconclusive) | AC50 (Cytochrome P450 3A4): 31.6 µM (inconclusive)

CC(=O)OCC1=C(C(=O)O)N2C(=O)C(NC(=O)C(C)Cn3nc(C)c(Cl)c3C)C2SC1 (configuration not stated)
EC50 [1]: 3.56 µM (active) | EC50 (Streptococcus): 5.07 µM (active)

Cc1cc(Nc2ccc(Cl)cc2)nc(N)n1
AC50 (Cytochrome P450 2C19; read-out: AC50): 8.91 µM (inconclusive) | AC50 (Cytochrome P450 3A4): 5.62 µM (inconclusive)

O=c1c(-c2ccc(F)cc2)nc2cnc(N3CCNCC3)nc2n1Cc1ccc(F)cc1
AC50 (Cytochrome P450 2C19; read-out: AC50): 39.8 µM (inconclusive) | AC50 (Cytochrome P450 2C9): 31.6 µM (inconclusive) | AC50 (Cytochrome P450 2D6): 20 µM (inconclusive)

O=C1C=C(Nc2nc(C(=O)O)cc(=O)[nH]2)c2ccccc2C1=O
AC50 (Cytochrome P450 2C19; read-out: AC50): 3.16 µM (inconclusive)

Cc1nc(-c2ccccn2)nc(N(C)c2ccccc2)c1Cl
EC50 [2]: 3.26 µM (active) | EC50 [3]: > 60 µM (not active)

CCCc1nn2c(O)c(C(c3ccc(C)cc3)c3c(O)n4nc(CCC)sc4nc3=O)c(=O)nc2s1
AC50 (Cytochrome P450 2C9): 12.6 µM (inconclusive)

CCOC(=O)Cn1nnc2c(sc3nc4c(c(-c5ccc(Cl)cc5)c32)CCC4)c1=O
AC50 (Cytochrome P450 2C19; read-out: AC50): 7.08 µM (inconclusive)

N#Cc1cccc(-c2nc(N3CCNCC3)c3ccccc3n2)c1
AC50 (Cytochrome P450 2D6): 39.8 µM (inconclusive)

COc1ccccc1N1CCN(C(=O)c2ccc3[nH]c4c(c3c2)CC(C)CC4)CC1 (configuration not stated)
EC50 [2]: 2 µM (active) | EC50 [3]: > 60 µM (not active)

COC(=O)[C@@]1(Cc2ccc(OC)cc2)[C@H]2c3cc(C(=O)N4CCCC4)n(C[C@H](O)CO)c3C[C@H]2CN1C(=O)c1ccccc1
AC50 (Cytochrome P450 2C19; read-out: AC50): 39.8 µM (inconclusive) | AC50 (Cytochrome P450 2C9): 31.6 µM (inconclusive)

COc1cccc(Cn2c(=O)c(-c3cccc(C#N)c3)nc3cnc(N4CCN(C)CC4)nc32)c1
AC50 (Cytochrome P450 3A4): 25.1 µM (inconclusive)

O=S(=O)(N=C(Nc1ccccn1)c1ccccc1)c1ccc(Cl)cc1
AC50 (Cytochrome P450 3A4): 1.41 µM (inconclusive) | AC50 (Cytochrome P450 2C9): 11.2 µM (inconclusive)

CO[C@H]1C=CO[C@@]2(C)Oc3c(C)c(O)c4c(O)c(c5c(c4c3C2=O)=NC2(CCN(CC(C)C)CC2)N=5)NC(=O)C(C)=CC=C[C@H](C)[C@H](O)[C@@H](C)[C@@H](O)[C@@H](C)[C@H](OC(C)=O)[C@@H]1C
EC50 [1]: < 0.06 µM (active) | EC50 (Streptococcus): < 0.06 µM (active)

COc1ccc(C=O)cc1COc1ccc(C)cc1[N+](=O)[O-]
AC50 (Cytochrome P450 2C9): 4.47 µM (inconclusive) | AC50 (Cytochrome P450 2D6): 14.1 µM (inconclusive)

O=C(Nc1cc(Sc2ccccn2)cc([N+](=O)[O-])c1)c1ccc([N+](=O)[O-])cc1
AC50 (Cytochrome P450 2C19; read-out: AC50): 5.01 µM (inconclusive) | AC50 (Cytochrome P450 3A4): 7.94 µM (inconclusive) | AC50 (Cytochrome P450 2C9): 10 µM (inconclusive)

CC(NCC(O)COC1CCC(C(C)(C)C)CC1)c1ccccc1 (configuration not stated)
EC50 [2]: 0.114 µM (active) | EC50 [3]: > 60 µM (not active)

N#CCCn1c(=O)c(-c2ccccc2)nc2cnc(OCc3ccccc3)nc21
AC50 (Cytochrome P450 2C19; read-out: AC50): 39.8 µM (inconclusive) | AC50 (Cytochrome P450 3A4): 7.94 µM (inconclusive)

CCCCCOc1ccc(Cn2ccnc2)cc1[N+](=O)[O-]
EC50 [2]: 2.21 µM (active) | EC50 [3]: > 60 µM (not active)

N#Cc1ccccc1-c1ccc2ncnc(NCc3cccnc3)c2c1
AC50 (Cytochrome P450 3A4): 2 µM (inconclusive)

CC(C(=O)NC1C(=O)N2C(C(=O)O)=C(CSc3nnnn3C)CSC12)n1cc(Br)cn1 (configuration not stated)
EC50 [1]: 0.101 µM (active) | EC50 (Streptococcus): 0.125 µM (active)

COc1cccc(CN(C)CC2CCCN(CCc3ccccc3C)C2)c1 (configuration not stated)
EC50 [2]: 0.184 µM (active) | EC50 [3]: 24.6 µM (active)

O=C(NC1CCCCC1)C(=S)NC1CCCCC1
EC50 (H4): 2.43 µM (active)

COc1ccc(C2CC(c3ccc(C)cc3)Nc3nc(N)nn32)cc1 (configuration not stated)
EC50 [2]: 7.21 µM (active) | EC50 [3]: > 60 µM (not active)

CC(C(=O)Nc1ccc(F)c(F)c1F)N(C)CC(=O)Nc1ccccc1Br (configuration not stated)
EC50 [2]: 1.71 µM (active) | EC50 [3]: > 60 µM (not active)

CCNc1ncc2nc(-c3ccc(Cl)cc3)c(=O)n(Cc3cccs3)c2n1
AC50 (Cytochrome P450 2C9): 31.6 µM (inconclusive) | AC50 (Cytochrome P450 2D6): 25.1 µM (inconclusive)

CCN(CC)S(=O)(=O)c1ccc(C)c(NC(=O)Cn2cnc3cc([N+](=O)[O-])ccc3c2=O)c1
EC50 [2]: 0.406 µM (active) | EC50 [3]: > 60 µM (not active)

CNc1nc(-c2ccccc2CN(C)C)nc2ccccc12
AC50 (Cytochrome P450 3A4): 25.1 µM (inconclusive)

O=C(Nc1ccccc1)N1CCCC2(CCN(C(=O)c3ccco3)CC2)C1
AC50 (Cytochrome P450 3A4): 15.8 µM (inconclusive) | AC50 (Cytochrome P450 2C9): 25.1 µM (inconclusive)

COc1ccc(NC(=O)COC(=O)c2c3c(nc4ccccc24)CCCC3)cc1
AC50 (Cytochrome P450 3A4): 0.891 µM (inconclusive)

CC(C)(C)c1csc(NC2=NS(=O)(=O)c3ccccc32)n1
EC50 (H4): > 120 µM (not active)

Cc1ccc(C)c(N2CCN(C(=O)c3ccc(Cn4c(=O)[nH]c5ccccc5c4=O)cc3)CC2)c1
EC50 [2]: 0.687 µM (active) | EC50 [3]: > 60 µM (not active)

Cc1cc(C(=O)CCl)c(C)n1Cc1ccco1
EC50 [2]: 3.3 µM (active) | EC50 [3]: 7.2 µM (active)

CCC(NC(=O)c1ccc([N+](=O)[O-])cc1[N+](=O)[O-])c1ccccc1 (configuration not stated)
EC50 [2]: 0.879 µM (active) | EC50 [3]: > 60 µM (not active)

Cc1ccccc1-c1cc(N(C)Cc2ccco2)ncn1
AC50 (Cytochrome P450 2D6): 39.8 µM (inconclusive)

CC[C@H](c1ccccc1)c1cc(C(C)(C)C)cc(C(C)(C)C)c1O
AC50 (Cytochrome P450 3A4): 5.01 µM (inconclusive) | AC50 (Cytochrome P450 2C9): 7.94 µM (inconclusive)

CCCCN1C(=O)NC(=O)/C(=C(/CC)NCCCN(C)C)C1=O
EC50 [2]: 0.236 µM (active) | EC50 [3]: > 60 µM (not active)

Cn1cccc1C(=O)N1CCC[C@@]2(CCN(Cc3nccs3)C2)C1
AC50 (Cytochrome P450 2C9): 31.6 µM (inconclusive) | AC50 (Cytochrome P450 2D6): 31.6 µM (inconclusive)

COc1cccc(Cn2c(=O)c(C)nc3cnc(N4CCNCC4)nc32)c1
AC50 (Cytochrome P450 2C19; read-out: AC50): 39.8 µM (inconclusive)

CCN(CC)CCN(C(=O)C1=COCCO1)c1nc2ccc(C)cc2s1
EC50 [2]: 0.384 µM (active) | EC50 [3]: > 60 µM (not active)

COc1ccc(-c2nnn(CC(=O)NCCc3c[nH]c4ccccc34)n2)cc1OC
AC50 (Cytochrome P450 2D6): 0.0126 µM (inconclusive)

COc1ccc(C(=O)Nc2ccc(S(=O)(=O)N3CCOCC3)cc2)cc1OC
AC50 (Cytochrome P450 2C19; read-out: AC50): 8.91 µM (inconclusive) | AC50 (Cytochrome P450 2C9): 28.2 µM (inconclusive) | AC50 (Cytochrome P450 2D6): 0.00794 µM (inconclusive)

CC(=O)N(NC(=O)c1ccccc1Cl)C1CC(=O)N(c2ccc(C)cc2)C1=O (configuration not stated)
AC50 (Cytochrome P450 2C19; read-out: AC50): 1 µM (inconclusive) | AC50 (Cytochrome P450 3A4): 20 µM (inconclusive) | AC50 (Cytochrome P450 2C9): 14.1 µM (inconclusive)

COc1ccc(C2(C(=O)N3CCOCC3)CCCC2)cc1
AC50 (Cytochrome P450 3A4): 12.6 µM (inconclusive)

CCCCN(Cc1ccccc1)C(=O)c1cnc2n(c1=O)CCS2
AC50 (Cytochrome P450 2C9): 8.91 µM (inconclusive) | AC50 (Cytochrome P450 2D6): 31.6 µM (inconclusive)

N=C1/C(=N/Nc2cccc(Cl)c2)C(=O)NN1c1ccccc1
AC50 (Cytochrome P450 2C9): 1.26 µM (inconclusive)

COc1cc(/C=N/NC(=O)c2nc3ccccn3c2C)cc(OC)c1O
EC50 [2]: > 60 µM (not active) | EC50 [3]: > 60 µM (not active)

COc1ccc(/C=N/NC(N)=S)cc1OC(=O)c1cccc2ccccc12
AC50 (Cytochrome P450 2C9): 6.31 µM (inconclusive)

Cc1cc(N/N=C/c2ccc(Cl)cc2)nc(NCc2ccccc2)n1
EC50 [2]: 1.82 µM (active) | EC50 [3]: 11.4 µM (active)

CCCCOc1ccc(/N=C/c2ccc[nH]2)cc1
EC50 [4]: 33 µM (active)
